Values of other authors as cited in patent US8642603B2, “Substituted dihydro and tetrahydro oxazolopyrimidinones, preparation and use thereof” (Sanofi, priority 2007, dated 2014).

What was measured:
healthy human subjects = conditions: pretreatment
[1] = tested on: pentylenetetrazole- and picrotoxin-induced seizures; conditions: in vivo
[2] = tested on: positive and negative symptoms of schizophrenia; conditions: compared to placebo

**Q.** For N[C@H](C(=O)O)c1ccc(C(=O)O)c(O)c1 [(S)-4-carboxy-3-hydroxyphenylglycine], which “protection against audiogenic seizures” value (DBA/2 mice) is on record?
**A.** protects against audiogenic seizures

**Q.** With N[C@@]1(C(=O)O)CC[C@H]2[C@H](C(=O)O)[C@H]21 [LY354740] as the compound, how does the “effect on disruption of working memory by ketamine” value (healthy human subjects) read?
**A.** attenuation of the disruptive effects

**Q.** What about the “effect on pentylenetetrazole- and picrotoxin-induced seizures” value [1] of the same compound?
**A.** attenuates pentylenetetrazole- and picrotoxin-induced seizures

**Q.** With N[C@@]1(C(=O)O)CO[C@H]2[C@H](C(=O)O)[C@H]21 [LY379268] as the compound, how does the “effect on REM sleep and fast EEG” value (rat) read?
**A.** suppresses rapid eye movement (REM) sleep and fast EEG

**Q.** With CSCC[C@H](N)C(=O)N[C@@]1(C(=O)O)CS(=O)(=O)[C@H]2[C@H](C(=O)O)[C@H]21 [LY2140023] as the compound, how does the “positive and negative symptoms of schizophrenia” value [2] read?
**A.** statistically significant improvements

**Q.** For N[C@]1(C(=O)O)[C@H]2[C@@H](C[C@H]1OCc1ccc(Cl)c(Cl)c1)[C@]2(F)C(=O)O [MGS0039], which antidepressant-like effects (some animal models) is on record?
**A.** dose-dependent antidepressant-like effects

**Q.** Which “antipsychotic- and anxiolytic-like effects” value (mice) does the source give for Cc1c(OCc2cccc(-c3ccc(C(=O)O)cc3)c2)cc2c(c1C)C(=O)C(C1CCCC1)C2 (stereo not shown) [biphenyl-indanone A] here?
**A.** antipsychotic- and anxiolytic-like effects
